Assay results: PMC4656118 (Journal of biomolecular screening, 2014)
pIC50: −log10 of the molar value.

Key:
[1] = biological target: N-LANA peptide binding to nucleosomes (histones H2A/H2B) (Gallus gallus, UniProt P02263+P0C1H3); test: biochemical; parameters: species or system chicken; conditions: for Identified as hit in pilot screen (Z score < −2 for both replicates): pilot screen of known bioactives; for Scored positive for inhibition in HTS at ICCB-L/NSRB: 49,810 small molecules screened in duplicate, Z score
salmon sperm DNA = test: Counterscreen to detect DNA intercalators; type: binding; conditions: for DNA intercalation (competition with acridine orange): pilot screen hits at increasing concentrations; for Competition with acridine orange for DNA intercalation (acridine orange mP values): assay validation, increasing concentration, monensin up to 1uM
[2] = biological target: GST LANA1-23 binding to nucleosomes (Gallus gallus, UniProt P02263+P0C1H3); test: ELISA, inhibition of GST LANA1-23 binding to nucleosomes; parameters: species or system chicken; conditions: increasing concentrations of competitor or compound

| Compound | Confirmation of inhibitory activity by FP ([1]; pilot screen hits retested at increasing concentrations) | Identified as hit in pilot screen (Z score < −2 for both replicates) [1] | DNA intercalation (competition with acridine orange) (salmon sperm DNA) | Competition with acridine orange for DNA intercalation (acridine orange mP values) (salmon sperm DNA) | pIC50 [1] | Scored positive for inhibition in HTS at ICCB-L/NSRB [1] | Inhibition of GST LANA1-23 binding to nucleosomes by ELISA [2] | Inhibition of LANA 1-23 binding to nucleosomes ([1]; negative control for HTS) |
| --- | --- | --- | --- | --- | --- | --- | --- | --- |
| CC[C@@]1(O)C(=O)OCc2c1cc1n(c2=O)Cc2cc3cc(O)ccc3nc2-1 [10-HCT, 10-hydroxycamptothecin] | could not be confirmed | identified | inconsistently competed |  |  |  |  |  |
| CC[n+]1c(-c2ccccc2)c2cc(N)ccc2c2ccc(N)cc21 [EtBr, ethidium bromide] |  |  |  | reduced acridine orange mP values |  |  |  |  |
| O=C1c2c(O)ccc(O)c2C(=O)c2c(NCCNCCO)ccc(NCCNCCO)c21 [MTX, mitoxantrone] |  | identified | scored positive for DNA intercalation | reduced acridine orange mP values | > 4.60 | scored positive | inhibitory activity |  |
| CC[C@@]1([C@@H]2O[C@@H]([C@H]3O[C@@](O)(CO)[C@H](C)C[C@@H]3C)C[C@@H]2C)CC[C@H]([C@]2(C)CC[C@]3(C[C@H](O)[C@@H](C)[C@@H]([C@@H](C)[C@@H](OC)[C@H](C)C(=O)O)O3)O2)O1 [Monensin, monensin] |  |  |  | negligible effect |  |  |  | did not inhibit |
| CC[N+](C)(CC)CCC[n+]1c(-c2ccccc2)c2cc(N)ccc2c2ccc(N)cc21.[I-].[I-] [PI, propidium iodide] |  |  |  | reduced acridine orange mP values |  |  |  |  |
| COc1cccc2c1C(=O)c1c(O)c3c(c(O)c1C2=O)C[C@@](O)(C(C)=O)C[C@@H]3O[C@H]1C[C@H](N)[C@H](O)[C@H](C)O1 [daunorubicin] |  | identified | scored positive for DNA intercalation |  |  | scored positive |  |  |
| COc1cccc2c1C(=O)c1c(O)c3c(c(O)c1C2=O)C[C@@](O)(C(=O)CO)C[C@@H]3O[C@H]1C[C@H](N)[C@H](O)[C@H](C)O1 [doxorubicin] |  | identified | scored positive for DNA intercalation |  | > 4.60 | scored positive | inhibitory activity |  |
